The test system of assay [1] is SW-620. Kind of assay: Induction of cell cycle arrest in human SW620 cells assessed as increase in cdc25A level at 0.1 uM measured after 8 hrs by Western blot analysis. The class given is functional, cell-based.
Assay [2] relates to SW-620. In words: Antitumor activity against human SW620 cells xenografted in athymic mouse model assessed as complete tumor regression at 50 mg/kg measured after 17 to 94 days post tumor implantation by caliper method. The class given is functional, organism-based. Particulars: time 17-94 day.
Assay [3] has as its system SW-620. Kind of assay: Antitumor activity against human SW620 cells xenografted in athymic mouse model assessed as tumor free survival at 50 mg/kg measured after 17 to 94 days post tumor implantation by caliper method. Type of assay: functional, organism-based. As to conditions: time 17-94 day.

The source made the active and inactive calls. The rule behind the calls is not given here.

Turning to `Nc1ccn([C@@H]2O[C@H](CO)[C@@H](O)C2(F)F)c(=O)n1`, in the assay with SW-620 [1], the outcome was inactive.

In the case of `CCc1c2c(nc3ccc(OC(=O)N4CCC(N5CCCCC5)CC4)cc13)-c1cc3c(c(=O)n1C2)COC(=O)[C@]3(O)CC`, the result with SW-620 [2] and with SW-620 [3] was inactive.

These data come from ChEMBL document CHEMBL5678797, “AZD7762, a novel checkpoint kinase inhibitor, drives checkpoint abrogation and potentiates DNA-targeted therapies” (Mol Cancer Ther, 2008).
